Laboratory results reported in patent US5397702A, “Assay for and treatment of autoimmune diseases” (priority 1990, dated 1995).
Residue numbers refer to the chain shown, from its start. Read-outs that look alike come from different tables or passages of the source.

Columns and labels:
rKv3.1 cDNA (Kv4) = details: data from Luneau, et al., 1991; read-out: Blockers, Kd / half-blocking dose; cited from earlier work
mKv3.1a cDNA (NGK2) = details: data from Yokoyama, et al., 1989, cited from earlier work
[1] = biological target: T1, type l K+ channel (human) (Homo sapiens, UniProt P48547); experiment: Patch-clamp pharmacology of type l K+ channels in human Louckes lymphoma cells; assay type: cell-based
T1 construct: Native channels; endogenous in cells; host or cells: Louckes human B cell lymphoma line
T1 sequence (P48547 1-511): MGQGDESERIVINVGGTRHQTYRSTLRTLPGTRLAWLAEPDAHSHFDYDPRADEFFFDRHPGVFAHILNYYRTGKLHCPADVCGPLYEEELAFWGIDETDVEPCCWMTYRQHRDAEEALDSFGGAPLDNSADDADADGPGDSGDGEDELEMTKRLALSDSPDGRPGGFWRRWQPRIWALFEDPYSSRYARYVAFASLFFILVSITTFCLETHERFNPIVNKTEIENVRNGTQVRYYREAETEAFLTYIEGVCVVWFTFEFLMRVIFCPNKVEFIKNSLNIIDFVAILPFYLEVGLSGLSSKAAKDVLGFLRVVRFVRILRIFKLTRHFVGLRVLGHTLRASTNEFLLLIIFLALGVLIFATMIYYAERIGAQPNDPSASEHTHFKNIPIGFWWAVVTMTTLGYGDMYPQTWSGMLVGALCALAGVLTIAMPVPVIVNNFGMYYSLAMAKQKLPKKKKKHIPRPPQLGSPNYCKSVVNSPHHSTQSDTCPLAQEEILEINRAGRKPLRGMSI
Procedure: For the two-electrode voltage-clamp experiments, cells were bathed in oocyte Ringer solution containing 96mM NaCl, 2 mM KCl, 1.8 mM CaCl2, 1 mM MgCl2, 5 mM N-2-hydroxyethylpiperazine-N'-2-ethanesulfonic acid (HEPES), and adjusted to pH 7.5 with NaOH. The pipette solution was 3 M KCl. Patch-clamp experiments were carried out under identical conditions in oocytes and in T cells, using a mammalian Ringer solution containing 160 mM NaCl, 4.5 mM KCl, 2 mM CaCl2,1 mM MgCl2, 5 mM HEPES, and adjusted to pH 7.4 with NaOH and a total osmolarity of 290-320 mosm/kg. Internal (pipette) solutions contained: 140 mM KF, 2 mM MgCl2, 1 mM CaCl2, 5mM HEPES, 11 mM K2 -ethylene glycol-bis(β-aminoethylether)N,N,N',N'-tetraacetic acid (EGTA). CTX was purchased from Latoxan (IBF-Biotechnics, Inc., Columbia, Md.).
(§1) The patch-clamp amplifier (List L/M-EPC 7, Adams and List Associates, Ltd., Great Neck, N.Y.) was used in the voltage-clamp mode without series resistance compensation. Patchclamp electrodes were pulled from Accu-fill 90 Micropets (Becton, Dickinson & Co., Parsippany, N.J.) in three stages, coated with Sylgard (Dow Corning Corp., Midland, Mich.) and fire-polished to resistances, measured in the bath, of 2-7 M.OMEGA.. In all patch-clamp experiments, the command input of the patch-clamp amplifier was controlled by a PDP 11/73 computer via a digital-analog converter, and membrane currents were recorded at a bandwidth of 2 kHz. The holding potential was adjusted in all experiments to E=-80 mV. Correction for capacitative currents was achieved by analog subtraction.
Type l Channels in a Human Lymphoma Line: The human B cell lymphoma line, Louckes, has been reported to express large numbers of type l K+ channels (Shapiro and DeCoursey, (1988) Biophys. J. 53, 550a). We have confirmed that Louckes cells display a K+ channel with gating kinetics and pharmacological sensitivities indistinguishable from the type l K+ channels of mouse T cells (Table I and II). Because Louckes is a human cell line, it should be possible to compare the Kv3.1 transcripts isolated from these cells with Kv3.1 transcripts isolated from mouse T cells.

[2] = biological target: T2, type n K+ channel (human) (Homo sapiens, UniProt P22001); experiment: Patch-clamp pharmacology of type n K+ channels in human T cells; assay type: cell-based; details: for Kd: data from this paper
T2 construct: Native channels; endogenous in cells; host or cells: human T cells
T2 sequence (P22001 whole entry): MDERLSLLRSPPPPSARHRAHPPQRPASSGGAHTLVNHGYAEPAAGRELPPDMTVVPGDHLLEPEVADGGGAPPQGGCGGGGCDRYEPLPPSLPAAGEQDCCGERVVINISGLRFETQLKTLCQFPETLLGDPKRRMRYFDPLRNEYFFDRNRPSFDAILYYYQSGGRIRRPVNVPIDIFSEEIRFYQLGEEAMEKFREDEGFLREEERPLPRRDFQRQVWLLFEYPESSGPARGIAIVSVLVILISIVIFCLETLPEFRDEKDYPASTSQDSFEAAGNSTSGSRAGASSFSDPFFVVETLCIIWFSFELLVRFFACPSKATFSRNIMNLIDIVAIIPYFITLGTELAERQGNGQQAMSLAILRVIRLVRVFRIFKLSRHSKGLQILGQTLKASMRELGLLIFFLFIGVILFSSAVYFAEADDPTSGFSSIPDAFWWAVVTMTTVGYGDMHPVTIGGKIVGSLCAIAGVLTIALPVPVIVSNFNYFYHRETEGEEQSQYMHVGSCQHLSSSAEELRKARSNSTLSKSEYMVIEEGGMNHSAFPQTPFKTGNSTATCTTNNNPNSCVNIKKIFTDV
Excerpt: (§2) The pipette solution was 3 M KCl. […] CTX was purchased from Latoxan (IBF-Biotechnics, Inc., Columbia, Md.).
as §1

mKv3.1b K+ channels = biological target: T3, mKv3.1b K+ channels (Mus musculus, UniProt P15388); experiment: cell-based; assay type: cell-based
T3 construct: expressed in transfected cells; host or cells: Xenopus oocytes injected with mKv3.1b mRNA
T3 sequence (P15388 1-585 isoform P15388-3): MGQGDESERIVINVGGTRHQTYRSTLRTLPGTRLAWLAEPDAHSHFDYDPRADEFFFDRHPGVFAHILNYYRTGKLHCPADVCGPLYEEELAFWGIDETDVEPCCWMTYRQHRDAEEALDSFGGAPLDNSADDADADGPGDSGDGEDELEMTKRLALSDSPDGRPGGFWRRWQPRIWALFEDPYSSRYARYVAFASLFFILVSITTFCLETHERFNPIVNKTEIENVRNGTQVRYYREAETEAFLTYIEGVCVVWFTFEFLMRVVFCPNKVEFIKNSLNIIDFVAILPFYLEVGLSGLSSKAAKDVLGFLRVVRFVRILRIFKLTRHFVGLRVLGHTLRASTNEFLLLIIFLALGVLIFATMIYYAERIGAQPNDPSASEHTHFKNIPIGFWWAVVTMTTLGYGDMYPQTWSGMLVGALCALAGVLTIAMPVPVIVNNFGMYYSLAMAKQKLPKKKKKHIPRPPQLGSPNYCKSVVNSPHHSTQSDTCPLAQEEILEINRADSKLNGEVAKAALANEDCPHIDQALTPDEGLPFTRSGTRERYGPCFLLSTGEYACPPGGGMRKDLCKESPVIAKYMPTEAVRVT
Procedure: For transcription, the plasmid was linearized by digestion with SacI in the polylinker.
All experiments were done at room temperature (22°-26°C.).
as §2, §1
Mouse Kv3.1b Expression in Oocytes: Xenopus oocytes express a high density of voltage-activated K+ channels following injection of mKv3.1b mRNA. […] Single channel recordings were done on outside-out patches from these oocytes, whereas gating and inactivation kinetics and pharmacological sensitivities were determined using outside-out patches of oocyte membrane injected with a 10 times more concentrated mRNA solution (50 nl of 0.1 μg/μ^1 mRNA).

type n channels = details: cited from earlier work
[3] = biological target: T4, type n K+ channel (mouse) (Mus musculus, UniProt P16390); experiment: Patch-clamp pharmacology of type n K+ channels in mouse T cells; assay type: cell-based
T4 construct: Native channels; endogenous in cells; host or cells: mouse T cells
T4 sequence (P16390 whole entry): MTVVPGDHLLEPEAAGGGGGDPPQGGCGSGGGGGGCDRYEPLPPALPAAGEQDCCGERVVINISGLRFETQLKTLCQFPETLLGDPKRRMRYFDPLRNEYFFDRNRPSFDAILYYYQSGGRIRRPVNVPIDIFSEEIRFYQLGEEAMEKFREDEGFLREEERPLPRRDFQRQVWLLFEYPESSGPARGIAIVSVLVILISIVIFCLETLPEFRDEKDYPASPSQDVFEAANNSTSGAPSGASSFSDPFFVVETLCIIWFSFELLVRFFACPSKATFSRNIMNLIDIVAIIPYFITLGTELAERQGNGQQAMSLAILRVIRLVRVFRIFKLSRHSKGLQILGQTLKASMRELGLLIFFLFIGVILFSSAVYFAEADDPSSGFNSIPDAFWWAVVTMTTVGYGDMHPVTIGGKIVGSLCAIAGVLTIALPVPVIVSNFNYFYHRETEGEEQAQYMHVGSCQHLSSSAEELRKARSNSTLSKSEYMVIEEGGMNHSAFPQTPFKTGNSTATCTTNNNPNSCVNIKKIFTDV
Procedure: (§3) A gigohm seal patch-clamp technique was employed [Hamill, et al., Pflugers Arch. […] Cells were separated and stained as described infra. Maximum K^+ conductances (gk) Of CD4^- CD8^- Thy-l.2^+ T cells were determined from the maximum peak K^+ current elicited at +40 mV (holding potential -80 mV), assuming a reversal potential for K^+ of -80 mV. All experiments were done at room temperature (22° to 26° C.). The cells under investigation were bathed in Ringer solution (in mM): 160 NaCl, 4.5 KCl, 2 MgCl2, 1 CaCl2, 2 MgCl2, and 10 K-HEPES (pH 7.4). […] Each point represents gk in one single cell except the ones with the bars that reflect the mean±SD of previously reported data. The data from C3H (n=12), C3H-lpr (n=22), C3H-gld (n=26), and MRL-lpr (n=31) are taken from Grissmer, et al., J. Immunol. […] Three types of voltage-gated K^+ channels (n, l, n') are expressed by murine T cells, which can be distinguished by electrophysiological and pharmacological criteria. DeCoursey, et al., J. Gen.
(§4) K^+ channels were identified on the basis of their inactivation properties, channel closing kinetics, and sensitivity to block by tetraethylammonium (TEA). Typically type n K^+ channels are use-dependent, i.e., show cumulative inactivation by repetitive depolarizing pulses. Use dependence was determined by measuring the decline in the size of the peak K^+ current elicited with one per second repetitive depolarizing pulses of 200 ms duration.
(§5) (5) Electrophysiology: After phenotypic identification by epifluorescence microscopy, single T cells were patch-clamped at room temperature (22° to 26° C).
(§6) Solutions: The cells under investigation were bathed in normal mammalian Ringer solution containing (in mM): 160 NaCl, 4.5 KCl, 2 MgCl2, 1CaCl2, and 5 Na-HEPES (pH 7.4). […] In Ringer solutions containing tetraethylammonium chloride (TEA^+), NaCl was replaced by the appropriate TEA^+ concentrations keeping the osmolarity constant. The bath solution could be changed during recordings by bath perfusion.

[4] = biological target: T5, type l K+ channel (mouse) (Mus musculus, UniProt P15388); details: cited from earlier work; for effect on type l K+ channels, in words: MRL-lpr mice / mouse lymphocytes
T5 construct: Native channels; endogenous in cells; host or cells: mouse T cells (CD4-CD8- T cells of autoimmune strains such as MRL-lpr; normal cytotoxic T cells)
T5 sequence (P15388 1-511): T1 sequence (P48547 1-511) with I265V

[5] = biological target: T5, type l K+ channel (mouse); experiment: Patch-clamp pharmacology of type l K+ channels in mouse T cells; assay type: cell-based; details: for Kd: data from this paper
Procedure: as §3, §4, §5, §6

[6] = biological target: T2, type n K+ channel (human); details: data from DeCoursey, et al., 1984, Sands, 1989, read-out: Blockers, Kd / half-blocking dose; cited from earlier work
[7] = biological target: T4, type n K+ channel (mouse); details: cited from earlier work
[8] = Louckes cells, read-out: Blockers, Kd / half-blocking dose
[9] = 20 mM Co^2+, data from this paper
[10] = 20 mM Co^2+, data from DeCoursey, et al., 1987
[11] = data from DeCoursey, et al., 1987, read-out: Blockers, Kd / half-blocking dose
[12] = first value, read-out: apparent dissociation constant Kd, from reduction of the integral under the current trace
[13] = second value, read-out: apparent dissociation constant Kd, from reduction of the peak current amplitude

Nc1ccncc1 [4-AP, 4-aminopyridine]
Kd (rKv3.1 cDNA (Kv4)): 300 µM | Kd (mKv3.1a cDNA (NGK2); read-out: Blockers, Kd / half-blocking dose): 600 µM | Kd [1, 8]: < 100 µM

[Co+2] [Co^2+]
Effect of Co^2+: block gK(Co)/gK ([2]; 10 mM Co^2+ (*)): 0.2 | Effect of Co^2+: shift ΔEn ([2]; 10 mM Co^2+ (*)): 28 mV | Effect of 20 mM Co^2+: block gK(Co)/gK ([1]; 20 mM Co^2+): 0.76 | Effect of 20 mM Co^2+: shift ΔEn ([1]; 20 mM Co^2+): 30 mV | Effect of 20 mM Co^2+: block gK(Co)/gK (mKv3.1b K+ channels; 20 mM Co^2+): 0.75 | Effect of 20 mM Co^2+: shift ΔEn (mKv3.1b K+ channels; 20 mM Co^2+): 30 mV | effect on type n channels, in words (type n channels): strongly blocked | Effect of 20 mM Co^2+: block gK(Co)/gK [3, 9]: 0.27 | Effect of 20 mM Co^2+: shift ΔEn [3, 9]: 40 mV | Effect of 20 mM Co^2+: block gK(Co)/gK [4, 10]: 0.9 | Effect of 20 mM Co^2+: shift ΔEn [4, 10]: 36 mV | effect on type l K+ channels, in words [4]: strongly shift the voltage dependence of activation to more depolarized potentials, with minimal blocking

[La+3] [La3+]
effect on type n channels, in words (type n channels): strongly blocked | effect on type l K+ channels, in words [4]: strongly shift the voltage dependence of activation to more depolarized potentials, with minimal blocking

CC[N+](CC)(CC)CC [TEA, tetraethylammonium]
Kd [1, 8]: 120 µM | IC50 ([1]; human Louckes lymphoma cells, read-out: half-blocking dose): 100 µM | IC50 [5]: 100 µM | Kd (mKv3.1b K+ channels; outside-out oocyte patch, pulses to +40 mV from -80 mV, read-out: Blockers, Kd / half-blocking dose): 150 µM | IC50 [3]: 10000 µM | Kd [6]: 8000 µM | Kd [4, 11]: 80 µM | Kd ([4]; type l channels of murine T cells, read-out: KD / half-blocking dose of block by TEA, identification criterion): 100 µM | Kd [7, 11]: 10000 to 13000 µM | Kd ([7]; type n channels of murine T cells, read-out: KD of block by TEA, identification criterion): 8000 µM

C=C[C@H]1C[N@@]2CC[C@H]1C[C@H]2[C@H](O)c1ccnc2ccc(OC)cc12 [quinine]
Kd [2, 12]: 13 µM | Kd [2, 13]: 24 µM | Kd (mKv3.1a cDNA (NGK2); read-out: Blockers, quinine): 1000 µM | Kd [1, 12]: 10 µM | Kd [1, 13]: 20 µM | Kd [5, 12]: 10 µM | Kd [5, 13]: 19 µM | Kd (mKv3.1b K+ channels; 200 ms steps from -80 mV to 40 mV, first value, read-out: apparent dissociation constant Kd, from reduction of the integral under the current trace): 4 µM | effect on mKv3.1b K+ currents, in words (mKv3.1b K+ channels; oocytes): increased the apparent rate of mKv3.1b K+ current inactivation, and produced "use-dependent" block | Kd (mKv3.1b K+ channels; [13]): 20 µM
